Measured values as given in US3984413A, “Phenoxyalkanecarboxylic acid esters of hydroxyalkyltheophyllines and method for their manufacture” (L. Merckle KG, priority 1973, dated 1976).
Where two headings read alike, the source gives them in different places.

What was measured:
[1] = cited from earlier work
[2] = mouse; comparison, literature data; 10080 min; cited from earlier work
[3] = antilipemic and anticholesterolemic action in rats on fatty diet, 14 days; format: in vivo, rat (male SPF Wistar); settings: for Drop (nonvolatile triglycerides) / Final value cholesterol / Final value nonvolatile triglycerides / Drop (cholesterol): 14 days; for Final value cholesterol / Final value nonvolatile triglycerides: blood serum; for reduction of the triglycerides compared with Clofibrat: in a substantially lower dosage than Clofibrat
Description: (§1) The antilipemic and anticholesterolemic action of the compounds according to the invention and of Clofibrat as a standard of comparison was tested on each of 10 male SPF Wistar strain rats of body weights from 80 to 90 g. For test purposes the animals were kept individually apart with restricted feed but water as desired. The animals of control group I were given 10 g basal diet daily, those of control group II, the test groups as well as the Clofibrat comparison group received in addition to the basal diet a fatty composition consisting of 40 g/kg butter with 5 g/kg cholesterol. The test substances conforming to the examples, and also the Clofibrat, were suspended in a 0.2% methylcellulose solution and administered by probang. The final cholesterol value and the value of the nonvolatile triglycerides was determined after 14 days treatment. The analyses were performed in the blood serum by means of an SMA 12/60 auto-analyzer.

[4] = acute toxicity (LD50) in rats, oral; settings: in vivo, rat
Description: (§2) The acute toxicity of the preparations according to the invention was tested on CFJ strain mice and Sprague-Dawley rats.
(§3) The test substances according to Examples 2,5,6,8 and 10 were administered orally as a 5% suspension in methylcellulose by means of a probang, while the test material according to Example 4, was administered in a 8% gelatin suspension. The test materials for Examples 1 and 3 were administered orally by probang in an aqueous kaolin paste to rats (5 female and 5 male rats weighing 140 to 185 grams each).
(§4) The period of observation was 7 days.

[5] = over-all tolerance and clinical pattern during the rat lipid trial; format: in vivo, rat (male SPF Wistar)
Description: as §1
There were no deaths. […] No difference could be determined in hearing tests.

[6] = action on peripheral circulation in narcotized dogs; format: in vivo, dog
Excerpt: According to Examples 2, 3 and 4, the peripheral circulation is increased some 20-30% of its initial level by the test substances according to those examples.

[7] = acute toxicity (LD50) in mice, oral; settings: in vivo, mouse
Description: as §2, §3, §4

[8] = action on blood pressure in narcotized dogs; settings: into the duodenum, doses up to 200 mg/kg
[9] = oral, 5% suspension in methylcellulose, 7 days, according to Litchfield and Wilcoxon
[10] = versus control groups and Clofibrat comparison group

| SMILES | Drop (nonvolatile triglycerides) ([3]; 100 mg/kg) [%] | Final value cholesterol ([3]; 100 mg/kg) [mg %] | Final value nonvolatile triglycerides ([3]; 100 mg/kg) | increase of peripheral circulation, of its initial level [6] | LD50 at 168 h [7, 9] [mg/kg] | systolic and diastolic blood pressure [8] | also measured |
| --- | --- | --- | --- | --- | --- | --- | --- |
| CCOC(=O)C(C)(C)Oc1ccc(Cl)cc1 [Clofibrat, ethyl 2-(p-chlorophenoxy) isobutyrate, reference compound] | – | – | – | – | – | – | effect on cholesterol value ([1]; fatty diet rat test, Berger et al. 1969): does not lower but even raises the cholesterol value; lowering of cholesterol ([1]; reported in the literature): frequently been reported in the literature; LD50 [2]: 1150 mg/kg; Drop (nonvolatile triglycerides) ([3]; 250 mg/kg): 20.6%; Final value cholesterol ([3]; 250 mg/kg): 133.3 mg %; Final value nonvolatile triglycerides ([3]; 250 mg/kg): 107.7; lowering of cholesterol ([3]; fatty diet rats, in these experimental trials): absolutely inactive |
| Cn1c(=O)c2c(ncn2CCOC(=O)C(C)(C)Oc2ccc(Cl)cc2)n(C)c1=O [Example 1, 1-(7-theophyllinyl)-2-ethyl [2-(p-chlorophenoxy)-isobutyrate]] | 17.3 | 95.2 | 112.2 | up to 10% | – | – | Drop (cholesterol) ([3]; 100 mg/kg): 22.7%; lowering of increased cholesterol values (in words) ([3]; in comparison to Clofibrat): with greater significance lower the increased cholesterol values; reduction of the triglycerides (in words) ([3]; rat, in vivo): comparatively good reduction of the triglycerides; LD50 at 168 h ([4]; oral by probang, aqueous kaolin paste, 7 days observation): > 4000 mg/kg; over-all tolerance ([5]; rat, in vivo): no differences in the over-all tolerance; peripheral circulation activity (in words) [6]: only slight activity |
| Cn1c(=O)c2c(ncn2CC(O)COC(=O)COc2ccc(Cl)cc2)n(C)c1=O (stereo not shown) [Example 2, 1-(7-theophyllinyl)-2-hydroxy-3-propyl (p-chlorophenoxyacetate)] | 45.9 | 130.3 | 73.4 | 20-30% | 2150 | did not acutely affect the systolic and diastolic blood pressure to any substantial degree | reduction of the triglycerides compared with Clofibrat [3]: more than twice as large a reduction of the triglycerides; over-all tolerance [5, 10]: no differences in the over-all tolerance |
| Cn1c(=O)c2c(ncn2CC(COC(=O)COc2ccc(Cl)cc2)OC(=O)COc2ccc(Cl)cc2)n(C)c1=O (stereo not shown) [Example 3, 1-(7-theophyllinyl)-2,3-propylidenedi(p-chlorophenoxy acetate)] | 44.2 | 122.0 | 75.7 | 20-30% | – | did not acutely affect the systolic and diastolic blood pressure to any substantial degree | reduction of the triglycerides compared with Clofibrat [3]: more than twice as large a reduction of the triglycerides; LD50 at 168 h ([4]; po): > 4000 mg/kg; over-all tolerance [5, 10]: no differences in the over-all tolerance |
| Cn1c(=O)c2c(ncn2CCOC(=O)C(Oc2ccc(Cl)cc2)Oc2ccc(Cl)cc2)n(C)c1=O [Example 4, 1-(7-theophyllinyl)-2-ethyl bis-(p-chlorophenoxy) acetate] | – | 111.0 | 179.7 | 20-30% | – | did not acutely affect the systolic and diastolic blood pressure to any substantial degree | LD50 at 168 h ([7]; po): 1910 mg/kg; Final value cholesterol ([3]; 35 mg/kg): 132.3 mg %; Final value nonvolatile triglycerides ([3]; 35 mg/kg): 148.3; Drop (cholesterol) ([3]; 100 mg/kg): 9.8%; weight increase ([5]; 100 mg/kg dosage): reduced increase in weight |
| Cn1c(=O)c2c(ncn2CCOC(=O)COc2ccc(Cl)cc2)n(C)c1=O [Example 5] | – | – | – | – | 1510 | – | – |
| CC(Oc1ccc(Cl)cc1)C(=O)OCCn1cnc2c1c(=O)n(C)c(=O)n2C (stereo not shown) [Example 6] | – | – | – | – | 1540 | – | – |
| CC(Oc1cccc(C(F)(F)F)c1)C(=O)OCCn1cnc2c1c(=O)n(C)c(=O)n2C (stereo not shown) [Example 8] | – | – | – | – | 2140 | – | – |
| Cn1c(=O)c2c(ncn2CCOC(=O)COc2ccc(F)cc2)n(C)c1=O [Example 10] | – | – | – | – | 1680 | – | – |
